According to patent US20120324604A1, “PESTICIDAL MIXTURES CONTAINING ISOXAZOLINE DERIVATIVES AND A FUNGICIDE” (priority 2010, published 2012):

Assays:
Type in all cases: cell-based
Fusarium culmorum = Fusarium culmorum (Root Rot) growth inhibition, microtiter plate, photometric; details: alone
Method: Fusarium culmorum (Root Rot):
(§1) Conidia of the fungus from cryogenic storage were directly mixed into nutrient broth (potato dextrose broth). After placing a (DMSO) solution of the test compounds into a microtiter plate (96-well format) the nutrient broth containing the fungal spores was added.

Septoria tritici = Septoria tritici (Leaf Blotch) growth inhibition, microtiter plate, photometric; details: for AVERAGE DEAD IN % A1: A1 alone; for AVERAGE DEAD IN %: alone
Method: Septoria tritici (Leaf Blotch):
as §1

[1] = test system: Mycosphaerella arachidis (syn. Cercospora arachidicola); test: Mycosphaerella arachidis (Brown Leaf Spot of Groundnut) growth inhibition, microtiter plate, photometric; details: alone
Method: Mycosphaerella arachidis (syn. Cercospora arachidicola), Brown Leaf Spot of Groundnut (Peanut):
as §1

Pythium ultimum = Pythium ultimum (Damping Off) growth inhibition, microtiter plate, photometric
Method: Pythium ultimum (Damping Off):
Mycelial fragments of the fungus, prepared from a fresh liquid culture, were directly mixed into nutrient broth (potato dextrose broth). After placing a (DMSO) solution of the test compounds into a microtiter plate (96-well format) the nutrient broth containing the fungal spores was added.

Gaeumannomyces graminis = Gaeumannomyces graminis growth inhibition, microtiter plate, photometric
Method: Mycelial fragments of the fungus from cryogenic storage were directly mixed into nutrient broth (potato dextrose broth). After placing a (DMSO) solution of the test compounds into a microliter plate (96-well format) the nutrient broth containing the fungal spores was added.

[2] = test system: Glomerella lagenarium (syn. Colletotrichum lagenarium); test: Glomerella lagenarium (Anthracnose of Cucurbits) growth inhibition, microtiter plate, photometric; details: alone
Method: Glomerella lagenarium (syn. Colletotrichum lagenarium), Anthracnose of Cucurbits:
as §1

Rhizoctonia solani = Rhizoctonia solani (Foot Rot, Damping-Off) growth inhibition, microtiter plate, photometric
Method: Rhizoctonia solani (Foot Rot, Damping-Off):
Mycelial fragments of the fungus from cryogenic storage were directly mixed into nutrient broth (potato dextrose broth). After placing a (DMSO) solution of the test compounds into a microtiter plate (96-well format) the nutrient broth containing the fungal spores was added.

[3] = single compound at 0.0390625 ppm AI
[4] = single compound at 0.078125 ppm AI
[5] = single compound at 0.15625 ppm AI
[6] = single compound at 0.3125 ppm AI
[7] = single compound at 0.625 ppm AI
[8] = applied alone, 0.0390625 ppm AI

Cc1cc(C2=NOC(c3cc(Cl)cc(Cl)c3)(C(F)(F)F)C2)ccc1C(=O)NC1(C)CSC1 (racemic) [A1]
0%: AVERAGE DEAD IN % (Fusarium culmorum; 0.625 PPM AI) | AVERAGE DEAD IN % (Fusarium culmorum; 1.25 PPM AI) | AVERAGE DEAD IN % (Fusarium culmorum; 2.5 PPM AI) | AVERAGE DEAD IN % (Fusarium culmorum; 5 PPM AI) | AVERAGE DEAD IN % (Fusarium culmorum; 10 PPM AI) | AVERAGE DEAD IN % (Fusarium culmorum; 20 PPM AI) | AVERAGE DEAD IN % A1 (Septoria tritici; 0.0390625 ppm AI) | AVERAGE DEAD IN % A1 (Septoria tritici; 0.078125 ppm AI) | AVERAGE DEAD IN % A1 (Septoria tritici; 0.15625 ppm AI) | AVERAGE DEAD IN % A1 (Septoria tritici; 0.3125 ppm AI) | AVERAGE DEAD IN % A1 (Septoria tritici; 0.625 ppm AI) | AVERAGE DEAD IN % A1 (Septoria tritici; 1.25 ppm AI) | AVERAGE DEAD IN % A1 (Septoria tritici; 2.5 ppm AI) | AVERAGE DEAD IN % A1 (Septoria tritici; 5 ppm AI) | AVERAGE DEAD IN % A1 (Septoria tritici; 10 ppm AI) | AVERAGE DEAD IN % A1 (Septoria tritici; 20 ppm AI) | AVERAGE DEAD IN % (Septoria tritici; 0.0390625 ppm AI) | AVERAGE DEAD IN % (Septoria tritici; 0.078125 ppm AI) | AVERAGE DEAD IN % (Septoria tritici; 0.15625 ppm AI) | AVERAGE DEAD IN % (Septoria tritici; 0.3125 ppm AI) | AVERAGE DEAD IN % (Septoria tritici; 0.625 ppm AI) | AVERAGE DEAD IN % (Septoria tritici; 1.25 ppm AI) | AVERAGE DEAD IN % (Septoria tritici; 2.5 ppm AI) | AVERAGE DEAD IN % (Septoria tritici; 5 ppm AI) | AVERAGE DEAD IN % (Septoria tritici; 10 ppm AI) | AVERAGE DEAD IN % (Septoria tritici; 20 ppm AI) | AVERAGE DEAD IN % ([1]; 0.0390625 ppm AI) | AVERAGE DEAD IN % ([1]; 0.078125 ppm AI) | AVERAGE DEAD IN % ([1]; 0.15625 ppm AI) | AVERAGE DEAD IN % ([1]; 0.3125 ppm AI) | AVERAGE DEAD IN % ([1]; 0.625 ppm AI) | AVERAGE DEAD IN % ([1]; 1.25 ppm AI) | AVERAGE DEAD IN % ([1]; 2.5 ppm AI) | AVERAGE DEAD IN % ([1]; 5 ppm AI) | AVERAGE DEAD IN % ([1]; 10 ppm AI) | AVERAGE DEAD IN % (Pythium ultimum; [3]) | AVERAGE DEAD IN % (Pythium ultimum; [4]) | AVERAGE DEAD IN % (Pythium ultimum; [5]) | AVERAGE DEAD IN % (Pythium ultimum; [6]) | AVERAGE DEAD IN % (Pythium ultimum; [7]) | AVERAGE DEAD IN % (Pythium ultimum; single compound at 1.25 ppm AI) | AVERAGE DEAD IN % (Pythium ultimum; single compound at 2.5 ppm AI) | AVERAGE DEAD IN % (Pythium ultimum; single compound at 5 ppm AI) | AVERAGE DEAD IN % (Pythium ultimum; single compound at 10 ppm AI) | AVERAGE DEAD IN % (Pythium ultimum; single compound at 20 ppm AI) | AVERAGE DEAD IN % (Gaeumannomyces graminis; [8]) | AVERAGE DEAD IN % (Gaeumannomyces graminis; applied alone, 0.078125 ppm AI) | AVERAGE DEAD IN % (Gaeumannomyces graminis; applied alone, 0.15625 ppm AI) | AVERAGE DEAD IN % (Gaeumannomyces graminis; applied alone, 0.3125 ppm AI) | AVERAGE DEAD IN % (Gaeumannomyces graminis; applied alone, 0.625 ppm AI) | AVERAGE DEAD IN % (Gaeumannomyces graminis; applied alone, 1.25 ppm AI) | AVERAGE DEAD IN % (Gaeumannomyces graminis; applied alone, 2.5 ppm AI) | AVERAGE DEAD IN % (Gaeumannomyces graminis; applied alone, 5 ppm AI) | AVERAGE DEAD IN % (Gaeumannomyces graminis; applied alone, 10 ppm AI) | AVERAGE DEAD IN % (Gaeumannomyces graminis; applied alone, 20 ppm AI) | AVERAGE DEAD IN % (Gaeumannomyces graminis; [3]) | AVERAGE DEAD IN % (Gaeumannomyces graminis; [4]) | AVERAGE DEAD IN % (Gaeumannomyces graminis; [5]) | AVERAGE DEAD IN % (Gaeumannomyces graminis; [6]) | AVERAGE DEAD IN % (Gaeumannomyces graminis; [7]) | AVERAGE DEAD IN % (Gaeumannomyces graminis; single compound at 1.25 ppm AI) | AVERAGE DEAD IN % (Gaeumannomyces graminis; single compound at 2.5 ppm AI) | AVERAGE DEAD IN % (Gaeumannomyces graminis; single compound at 5 ppm AI) | AVERAGE DEAD IN % (Gaeumannomyces graminis; single compound at 10 ppm AI) | AVERAGE DEAD IN % (Gaeumannomyces graminis; single compound at 20 ppm AI) | AVERAGE DEAD IN % ([2]; 0.0390625 ppm AI) | AVERAGE DEAD IN % ([2]; 0.078125 ppm AI) | AVERAGE DEAD IN % ([2]; 0.15625 ppm AI) | AVERAGE DEAD IN % ([2]; 0.3125 ppm AI) | AVERAGE DEAD IN % ([2]; 0.625 ppm AI) | AVERAGE DEAD IN % ([2]; 1.25 ppm AI) | AVERAGE DEAD IN % ([2]; 2.5 ppm AI) | AVERAGE DEAD IN % ([2]; 5 ppm AI) | AVERAGE DEAD IN % ([2]; 10 ppm AI) | AVERAGE DEAD IN % ([2]; 20 ppm AI) | AVERAGE DEAD IN % (Rhizoctonia solani; [8]) | AVERAGE DEAD IN % (Rhizoctonia solani; applied alone, 0.078125 ppm AI) | AVERAGE DEAD IN % (Rhizoctonia solani; applied alone, 0.15625 ppm AI) | AVERAGE DEAD IN % (Rhizoctonia solani; applied alone, 0.3125 ppm AI) | AVERAGE DEAD IN % (Rhizoctonia solani; applied alone, 0.625 ppm AI) | AVERAGE DEAD IN % (Rhizoctonia solani; applied alone, 1.25 ppm AI) | AVERAGE DEAD IN % (Rhizoctonia solani; applied alone, 2.5 ppm AI) | AVERAGE DEAD IN % (Rhizoctonia solani; applied alone, 5 ppm AI) | AVERAGE DEAD IN % (Rhizoctonia solani; applied alone, 10 ppm AI) | AVERAGE DEAD IN % (Rhizoctonia solani; applied alone, 20 ppm AI) | AVERAGE DEAD IN % (Rhizoctonia solani; [3]) | AVERAGE DEAD IN % (Rhizoctonia solani; [4]) | AVERAGE DEAD IN % (Rhizoctonia solani; [5]) | AVERAGE DEAD IN % (Rhizoctonia solani; [6]) | AVERAGE DEAD IN % (Rhizoctonia solani; [7]) | AVERAGE DEAD IN % (Rhizoctonia solani; single compound at 1.25 ppm AI) | AVERAGE DEAD IN % (Rhizoctonia solani; single compound at 2.5 ppm AI) | AVERAGE DEAD IN % (Rhizoctonia solani; single compound at 5 ppm AI) | AVERAGE DEAD IN % (Rhizoctonia solani; single compound at 10 ppm AI) | AVERAGE DEAD IN % (Rhizoctonia solani; single compound at 20 ppm AI)
